Holding throughout (type): in vivo, human
The test system of data set [1] is Crohn's disease (CD) patients. Put plainly: Infliximab induction treatment of Crohn's disease patients: clinical and laboratory outcome (CRP, albumin, HBI, clinical response, response classification). The note with it: for HBI 14 w post first treatment: Harvey-Bradshaw Index; for HBI 14 w post first treatment / Albumin 2 w post first treatment / Albumin 14 w post first treatment / CRP 2 w post first treatment / CRP 14 w post first treatment: mean ± SEM. As for the experimental part: (§1) Sample collection: The cohort consisted of 24 Crohn's disease (CD) patients who received Infliximab anti-TNF treatment at the gastroenterology department of the Rambam Health Care Campus (RHCC) and met the study inclusion criteria as follows: 1) Adequately documented active luminal CD, as phenotyped by a gastroenterologist with expertise in IBD; 2) Documented decision to initiate full infliximab induction regimen with 5 mg/kg induction dosing (i.e. at weeks 0, 2, 6). Patients that had past exposure to Infliximab, Adalimumab or Vedolizumab, or patients who had active infection including febrile diseases or intra-abdominal or perianal abscess were excluded.
(§2) Patient samples were obtained at three time points: at baseline, before infliximab treatment, and two and fourteen weeks post first treatment and assayed for gene expression microarray data.
Patient response classification was defined by decision algorithm, as described previously (Gaujoux et al. 2018). Briefly, patients were classified as responders based on clinical remission, which was defined as cessation of diarrhea and abdominal cramping or, in the cases of patients with fistulas, cessation of fistula drainage and complete closure of all draining fistulas at week 14, coupled with a decision of the treating physician to continue IFX therapy at the current dosing and schedule. Patients that were defined as partial responders, classification was determined by the decision algorithm that included the following hierarchical rules: 1) steroid dependency at week fourteen; 2) biomarker dynamics (Calprotectin and CRP) and 3) response according to clinical state at week 26.
Applying the decision algorithm and exclusion criteria, yielded a final study cohort of 15 and 9 responding and non-responding patients, respectively.

Data set [2] concerns immune age (IMM-AGE) score of peripheral blood. Put plainly: Immune-age score from whole blood gene expression (Affymetrix Clariom S, single-sample GSEA) before and after infliximab.
Text: as §2
Blood transcriptome processing and analysis: Whole blood was preserved in PAXgene Blood RNA tubes (PreAnalytiX). RNA was extracted and assayed using Affymetrix Clariom S chips (Thermo Fisher Scientific). The raw gene array data were processed to obtain a log 2 expression value for each gene probe set using the RMA (robust multichip average) method available in the affy R package. Probe set annotation was performed using affycoretools and clariomshumantranscriptcluster.db packages in R. Data were further adjusted for batch effect using empirical Bayes framework applied by the Combat R package.
Using a high-resolution longitudinal gene expression dataset from peripheral blood samples of 24 CD patients, 15 and 9 responding and non-responding patients, at three time points: pretreatment, 2 and 14 weeks post first treatment, the present inventors evaluated the samples' immune-age score reflecting the samples' position along the high dimensional IMM-AGE trajectory. To quantify the immune age of the CD patients, they used normalized gene expression measurements of the following genes: ABLIM1, AFF3, BACH2, BCL11A, BIRC3, BLNK, BTLA, C11orf31, C6orf48, CCR6, CCR7, CD200, CD22, CD27, CD28, CDCA7L, CHMP7, CR2, DPP4, E2F5, EPHX2, FAIM3, FAM102A, FAM134, FCRL1, FCRL2. HOOK1, HVCN1, IL6ST, IMPDH2, KIAA0748, LEF1, LRRN3, MYC, NELL2, NT5E, P2RX5, PAQR8, PLAG1, PTPRK, RCAN3, SCML1, SLC7A6, SNX9, STRBP, SUSD3, TCF4, TCF7, TCL1A, TCTN1, UXT, VPREB3, ZNF101, ZNF671, CRTC3, STAP1 and HLA-DOB.
The immune-age of the CD patients was estimated by using single-sample GSEA algorithm (Barbie D A et al. Nature 462, 108-112 (2009)). An external IBD (CD and UC) disease specific molecular response axis was used to describe the patients' dynamics by generating a PCA on differential gene expression between active and in-active disease states treated with variety of treatment regimens (using public data, GSE94648).

The nature of data set [3]: Infliximab drug levels and anti-drug antibodies (ADA) after first treatment. The conditions noted are these: drug level, mean ± SEM, levels >20 taken as 20. The method, then:
as §1, §2

Where [4] appears, read: of 24 CD patients, classified by decision algorithm at week 14.

The values below come from US20240018592A1, “METHODS OF ASSESSING THE THERAPEUTIC ACTIVITY OF AGENTS FOR THE TREATMENT OF IMMUNE DISORDERS” (Technion Research & Development Foundation Limited, priority 2020, published 2024).

Regarding Infliximab [IFX], in data set [1] (IFX non-responders (n = 9)), the “HBI 14 w post first treatment” value came to 5 ± 2.2, the “Albumin 2 w post first treatment” value worked out at 3.3 ± 0.3, the “Albumin 14 w post first treatment” value stood at 3.1 ± 0.2 and the “CRP 2 w post first treatment” value came to 8.8 ± 3.2. Further, the “CRP 14 w post first treatment” value in data set [1] (IFX non-responders (n = 9)) is listed as 28.0 ± 13.6. Also, in data set [1] (IFX responders (n = 15)), the “HBI 14 w post first treatment” value is 0.8 ± 0.3, the “Albumin 2 w post first treatment” value was 3.7 ± 0.1, the “Albumin 14 w post first treatment” value turned out to be 4.0 ± 0.1 and the “CRP 14 w post first treatment” value worked out at 5.1 ± 1.8. Besides, the “CRP 2 w post first treatment” value in data set [1] (IFX responders (n = 15), 5 mg/kg induction) is listed as 2.7 ± 0.7. In addition, in data set [1] (setting [4]), the non-responding patients was determined as 9 patients and the responding patients is reported as 15 patients. Further, the “shift of patients' immune age” value in data set [2] (cohort of 24 CD patients treated with anti-TNF (Infliximab)) is reported as “dramatically shift patients' immune age”. Besides, in data set [2] (responders versus non-responders, post treatment relative to baseline), the “immune age dynamics in responders” value is “shifted back their immune age and presented a significant drop”. For the same substance, the “immune age score in responders, early” value in data set [2] (responders, 2 weeks post treatment) was “significant reduced immune age score”. In data set [3] (IFX non-responders (n = 9)), the “IFX 2 w post first treatment” value was determined as 8.9 ± 1.9 ng/µL and the “IFX 14 w post first treatment” value amounted to 0.9 ± 0.3 ng/µL. In addition, in data set [3] (IFX responders (n = 15)), the “IFX 2 w post first treatment” value was found to be 10.7 ± 1.8 ng/µL and the “IFX 14 w post first treatment” value came to 3.3 ± 0.5 ng/µL.
